Among the data in ChEMBL document CHEMBL3120074, “p-Terphenyl O-β-glucuronides, DNA topoisomerase inhibitors from Streptomyces sp. LZ35ΔgdmAI” (2014) are inhibition, Activity and zone of inhibition values, retold here.

Active and inactive are the calls of the source. The calls are words filed in the database; no cut-off is given here.

Test [1] concerns the target DNA topoisomerase 2-alpha (Homo sapiens) (UniProt P11388). The experiment in a line: Inhibition of human recombinant DNA topoisomerase 2alpha-mediated relaxation of supercoiled pBR322 DNA at 100 uM after 30 mins by agarose gel electrophoresis.
The next test deals with Globisporangium ultimum. The experiment in a line: Antifungal activity against Pythium ultimum PR9.00318 at 30 ug/disc after 48 hrs by paper disc diffusion assay. It counts as functional, organism-based. (In general: Agar diffusion results depend on both activity and mobility in agar.)
The subject of another test is Rhizoctonia solani. The test can be described thus: Antifungal activity against Rhizoctonia solani GXE4 at 30 ug/disc after 48 hrs by paper disc diffusion assay. It counts as functional, organism-based.
Test [2] can be described thus: Antifungal activity against Monilia albican ATCC 10231 at 30 ug/disc after 48 hrs by paper disc diffusion assay. It counts as functional.
For another test, the system named is Bacillus subtilis. The test can be described thus: Antibacterial activity against Bacillus subtilis ACCC 11060 at 30 ug/disc after 24 hrs by paper disc diffusion assay. It counts as functional. The following applies: ACCC 11060, 24 h, read-out: DIZ.
For test [3], the system named is Mycolicibacterium smegmatis. The experiment in a line: Antibacterial activity against Mycobacterium smegmatis MC2 155 at 30 ug/disc after 24 hrs by paper disc diffusion assay. It counts as functional. The following applies: str. MC2 155, 24 h, read-out: DIZ.
The species named for a further test is Bos taurus. The experiment in a line: Inhibition of calf thymus DNA topoisomerase 1-mediated relaxation of supercoiled pBR322 DNA at 100 uM after 30 mins by agarose gel electrophoresis.

Chain of DNA topoisomerase 2-alpha (Homo sapiens) (P11388 whole entry, the tested form may be a part): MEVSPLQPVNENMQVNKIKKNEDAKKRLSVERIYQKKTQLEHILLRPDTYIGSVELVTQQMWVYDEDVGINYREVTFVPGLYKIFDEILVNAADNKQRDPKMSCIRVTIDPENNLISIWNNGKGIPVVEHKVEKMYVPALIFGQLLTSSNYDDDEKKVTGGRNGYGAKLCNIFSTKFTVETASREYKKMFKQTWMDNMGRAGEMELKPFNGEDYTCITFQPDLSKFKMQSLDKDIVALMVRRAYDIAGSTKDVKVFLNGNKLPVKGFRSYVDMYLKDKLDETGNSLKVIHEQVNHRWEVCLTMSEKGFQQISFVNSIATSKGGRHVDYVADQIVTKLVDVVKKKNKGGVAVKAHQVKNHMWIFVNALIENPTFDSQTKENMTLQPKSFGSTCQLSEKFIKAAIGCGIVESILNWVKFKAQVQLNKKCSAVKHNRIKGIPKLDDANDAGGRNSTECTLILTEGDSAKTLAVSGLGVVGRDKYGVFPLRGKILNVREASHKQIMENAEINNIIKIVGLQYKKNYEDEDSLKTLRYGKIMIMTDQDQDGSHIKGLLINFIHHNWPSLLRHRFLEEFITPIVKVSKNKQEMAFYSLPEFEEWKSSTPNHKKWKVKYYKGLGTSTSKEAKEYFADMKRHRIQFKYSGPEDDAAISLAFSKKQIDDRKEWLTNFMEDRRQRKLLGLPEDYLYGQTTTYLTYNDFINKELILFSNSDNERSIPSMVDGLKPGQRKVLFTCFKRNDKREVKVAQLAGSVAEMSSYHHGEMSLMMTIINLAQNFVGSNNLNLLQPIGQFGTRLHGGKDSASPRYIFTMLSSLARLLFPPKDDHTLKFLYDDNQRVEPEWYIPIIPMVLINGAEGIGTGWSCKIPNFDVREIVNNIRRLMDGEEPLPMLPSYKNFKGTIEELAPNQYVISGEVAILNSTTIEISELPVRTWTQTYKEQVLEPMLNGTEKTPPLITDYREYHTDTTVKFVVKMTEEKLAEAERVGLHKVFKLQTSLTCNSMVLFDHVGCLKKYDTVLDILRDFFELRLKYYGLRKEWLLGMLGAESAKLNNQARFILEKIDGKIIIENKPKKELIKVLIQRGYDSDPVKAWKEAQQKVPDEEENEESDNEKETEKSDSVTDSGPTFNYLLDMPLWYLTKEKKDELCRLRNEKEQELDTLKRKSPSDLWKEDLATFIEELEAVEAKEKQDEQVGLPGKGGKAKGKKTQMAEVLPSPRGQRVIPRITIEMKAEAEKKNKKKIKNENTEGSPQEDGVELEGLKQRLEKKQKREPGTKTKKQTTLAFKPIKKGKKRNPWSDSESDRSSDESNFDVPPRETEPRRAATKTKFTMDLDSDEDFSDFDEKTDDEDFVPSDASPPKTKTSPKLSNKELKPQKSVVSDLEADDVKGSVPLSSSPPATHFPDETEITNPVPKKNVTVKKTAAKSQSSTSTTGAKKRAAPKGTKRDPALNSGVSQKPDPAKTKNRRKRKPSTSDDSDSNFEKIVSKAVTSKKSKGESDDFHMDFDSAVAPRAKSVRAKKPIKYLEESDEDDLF

With `COc1c(-c2ccccc2)cc(O[C@@H]2O[C@H](C(=O)O)[C@@H](O)[C@H](O)[C@H]2O)c(-c2ccccc2)c1O`, the inhibition result in test [1] was “Active”. The result (with Globisporangium ultimum; in the test with Rhizoctonia solani; in test [2]) was inactive.

As to `O=C(O)[C@H]1O[C@@H](Oc2c(-c3ccccc3)cc(O)c(-c3ccccc3)c2O)[C@H](O)[C@@H](O)[C@@H]1O`, the zone of inhibition at 30 µg/disc was 15.8 mm with Bacillus subtilis and 11.2 mm in test [3]. Moreover, the inhibition result in test [1] was “Active”. The result (in the test with Globisporangium ultimum; in the test with Rhizoctonia solani; in test [2]) was inactive.

Take `Cn1c(=O)sc2c(-c3ccccc3)c(O)c(O[C@@H]3O[C@H](C(=O)O)[C@@H](O)[C@H](O)[C@H]3O)c(-c3ccccc3)c21`: the inhibition entry (in test [1]; in the test filed under Bos taurus) was “inactive” throughout. In addition, the outcome (with Globisporangium ultimum; in the test on Rhizoctonia solani; in test [2]) was inactive.

On to `O=C(O)[C@H]1O[C@@H](Oc2c(O)c(-c3ccccc3)c3scnc3c2-c2ccccc2)[C@H](O)[C@@H](O)[C@@H]1O`, for which the inhibition result (in test [1]; in the test filed under Bos taurus) was “inactive” throughout. The result (in the test on Globisporangium ultimum; with Rhizoctonia solani; in test [2]) was inactive.

Take `COC(=O)[C@H]1O[C@@H](Oc2c(-c3ccccc3)cc(O)c(-c3ccccc3)c2O)[C@H](O)[C@@H](O)[C@@H]1O`: the zone of inhibition at 30 µg/disc in the test on Bacillus subtilis stood at 14 mm; in test [3], 12 mm. The inhibition entry (in test [1]; in the test listed under Bos taurus) was “Active” each time. For the same molecule, the result (in the test on Globisporangium ultimum; in the test with Rhizoctonia solani; in test [2]) was inactive.
